Drawing on US20160002204A1 (Board of Regents, The University of Texas System, priority 2014, published 2016), this text covers IC50 and EC50 for eight molecules.

SMILES strings stand for the structures.

Test [1] concerns the target T1, GLS1 (purified recombinant human GAC) (Homo sapiens, UniProt O94925).
T1 sequence (O94925 55-598 isoform O94925-3 limits assumed): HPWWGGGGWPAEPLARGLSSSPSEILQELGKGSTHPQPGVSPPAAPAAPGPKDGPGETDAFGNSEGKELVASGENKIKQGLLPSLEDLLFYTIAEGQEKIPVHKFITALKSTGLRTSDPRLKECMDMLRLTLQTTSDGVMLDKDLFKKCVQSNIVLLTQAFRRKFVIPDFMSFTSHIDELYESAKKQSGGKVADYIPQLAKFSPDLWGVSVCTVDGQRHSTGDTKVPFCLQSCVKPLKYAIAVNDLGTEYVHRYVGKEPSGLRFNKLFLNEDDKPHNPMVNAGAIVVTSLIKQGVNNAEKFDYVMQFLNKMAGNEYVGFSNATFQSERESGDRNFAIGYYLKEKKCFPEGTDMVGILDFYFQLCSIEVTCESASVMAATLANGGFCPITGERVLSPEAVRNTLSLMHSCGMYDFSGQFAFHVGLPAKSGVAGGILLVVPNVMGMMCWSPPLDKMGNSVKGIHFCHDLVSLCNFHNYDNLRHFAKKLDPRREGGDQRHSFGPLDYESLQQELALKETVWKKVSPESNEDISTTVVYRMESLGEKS
As to the kind of experiment: GLS1 enzymatic activity assay (dual-coupled, Amplex UltraRed/resorufin). It counts as biochemical. Put shortly: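 Recombinant human GAC (2 nM) preincubated with 50 mM potassium phosphate, then inhibitor (10 min each, RT); 1 mM glutamine, pH 7.4 Hepes buffer, 1% DMSO. Glutamate coupled via glutamate oxidase/HRP to resorufin (Ex 530/Em 590), kinetic or 20-min endpoint; IC50 by four-parameter logistic fit.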

Another test deals with A549 cells. Kind of test: A549 proliferation (viability) assay, Cell Titer Fluor, 72 hours. It counts as cell-based. Particulars: Homo sapiens. Put shortly:
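Compound was added to A549 cells (1000/well, pre-grown 24 h in RPMI 1640 plus 10% dialyzed FBS) at 0.5% DMSO and left 72 h under 37 °C, 5% CO2, ambient O2. Live-cell fluorescence (Cell Titer Fluor) gave the EC50.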

Turning to `O=C(Cc1cccnc1Cl)Nc1ccn(CCC(F)Cn2cc(C(=O)NCc3cccc(OC(F)(F)F)c3)nn2)c(=O)c1` (stereo not shown) [Example 236, 1-(4-{4-[2-(2-chloropyridin-3-yl)acetamido]-2-oxo-1,2-dihydropyridin-1-yl}-2-fluorobutyl)-N-{[3-(trifluoromethoxy)phenyl]methyl}-1H-1,2,3-triazole-4-carboxamide], the IC50 in test [1] was less than 0.1 µM. In the test on A549 cells, the 50% effective concentration (EC50) lay in the range of 0.5 to 5 µM.
For `CC(C)(C)OC(=O)NCc1cccc(CC(=O)Nc2ccn(CCC(F)Cn3cc(C(=O)NCc4cccc(OC(F)(F)F)c4)nn3)c(=O)c2)c1` (stereo not shown) [Example 222, tert-butyl N-[(3-{[(1-{3-fluoro-4-[4-({[3-(trifluoro-methoxy)phenyl]methyl}carbamoyl)-1H-1,2,3-triazol-1-yl]butyl}-2-oxo-1,2-dihydropyridin-4-yl)carbamoyl]methyl}phenyl)methyl] carbamate], the concentration for half-maximal inhibition (IC50) in test [1] is less than 0.1 µM. Moreover, in the test with A549 cells, the EC50 is 0.1 to 0.5 µM.
In the same order, the values of `O=C(Cc1ccc2ccccc2n1)Nc1ccn(CCC(F)Cn2cc(C(=O)NCc3cccc(OC(F)(F)F)c3)nn2)c(=O)c1` (stereo not shown) [Example 253, 1-(2-fluoro-4-{2-oxo-4-[2-(quinolin-2-yl)acetamido]-1,2-dihydropyridin-1-yl}butyl)-N-{[3-(trifluoromethoxy)phenyl]methyl}-1H-1,2,3-triazole-4-carboxamide] are less than 0.1 µM and 0.5 to 5 µM.
For the molecule `O=C(Cc1ccccc1)Nc1ccn(CC(F)CCn2cc(C(=O)NCc3cc(C(F)(F)F)ccn3)nn2)c(=O)c1` (stereo not shown) [Example 161, 1-{3-fluoro-4-[2-oxo-4-(2-phenylacetamido)-1,2-dihydropyridin-1-yl]butyl}-N-{[4-(trifluoromethyl)pyridin-2-yl]methyl}-1H-1,2,3-triazole-4-carboxamide], the IC50 in test [1] was less than 0.1 µM. This molecule also gave an EC50 with A549 cells of 0.1 to 0.5 µM.
In the case of `O=C(CN1CCC(F)(F)CC1)Nc1ccn(CCC(F)Cn2cc(C(=O)NCc3cc(C(F)(F)F)ccn3)nn2)c(=O)c1F` (stereo not shown) [Example 416, 1-(4-{4-[2-(4,4-difluoropiperidin-1-yl)acetamido]-3-fluoro-2-oxo-1,2-dihydropyridin-1-yl}-2-fluorobutyl)-N-{[4-(trifluoromethyl)pyridin-2-yl]methyl}-1H-1,2,3-triazole-4-carboxamide], the IC50 in test [1] was less than 0.1 µM. The molecule further showed an EC50 in the test with A549 cells of less than 0.1 µM.
With `CC(C)(C)OC(=O)NCc1cccc(CC(=O)Nc2ccn(CCCCc3nnc(NC(=O)Cc4ccccc4)s3)c(=O)n2)c1` [Example 85, tert-butyl N-[(3-{[(2-oxo-1-{4-[5-(2-phenylacetamido)-1,3,4-thiadiazol-2-yl]butyl}-1,2-dihydropyrimidin-4-yl)carbamoyl]methyl}phenyl)methyl] carbamate], the IC50 in test [1] was less than 0.1 µM. Also, the EC50 in the test on A549 cells was in the range of 0.1 to 0.5 µM.
The corresponding values for `CC(=O)N1CCN(CC(=O)Nc2ccn(CCC(F)Cn3cc(C(=O)NCc4cccc(OC(F)(F)F)c4)nn3)c(=O)c2)CC1` (stereo not shown) [Example 229, 1-(4-{4-[2-(4-acetylpiperazin-1-yl)acetamido]-2-oxo-1,2-dihydropyridin-1-yl}-2-fluorobutyl)-N-{[3-(trifluoromethoxy)phenyl]methyl}-1H-1,2,3-triazole-4-carboxamide] are 0.1 to 0.5 µM and 0.5 to 5 µM.
The corresponding values for `CC1(C)CN(CC(=O)Nc2ccn(CCC(F)Cn3cc(C(=O)NCc4cccc(OC(F)(F)F)c4)nn3)c(=O)c2)CCO1` (stereo not shown) [Example 276, 1-(4-{4-[2-(2,2-dimethylmorpholin-4-yl)acetamido]-2-oxo-1,2-dihydropyridin-1-yl}-2-fluorobutyl)-N-{[3-(trifluoromethoxy)phenyl]methyl}-1H-1,2,3-triazole-4-carboxamide] are less than 0.1 µM and 0.1 to 0.5 µM.
